Measurements: PMC9650263, “Synthesis and appraisal of dalbergin-loaded PLGA nanoparticles modified with galactose against hepatocellular carcinoma: In-vitro, pharmacokinetic, and in-silico studies” (Frontiers in Pharmacology, 2022)
Values after ≈ are worked out from the molar mass of the structure shown.

Columns and labels:
[1] = In vitro drug release study; assay type: physicochemical; conditions: up to 48 h, 37°C; media pH 1.2 and 7.4 described, medium of the values not stated
Protocol: At pH values of 1.2 and 7.4, the drug release perspectives of DLF and DLMF were studied in both simulated gastric and simulated intestinal fluids. A flask was placed in an incubator with a water bath continually swirling (100 rev/min) and kept at a temperature of 37°C. The flask was filled with 10 ml of the appropriate medium and weighed amounts of DLF and DLMF that were sufficient for 10 mg of DL. The dissolving solution in the flask was then routinely replaced with new media at regular intervals, after which 2 ml of the sample was collected for DL detection. The samples were analyzed at 254 nm using a UV-Vis Spectrometer (Labtronics-2910, India), which was utilized to quantify the DL release. Triplicate dissolution tests were carried out. The data was analyzed to determine release kinetics ([Song, X., et al., 2018]; [Kanoujia, J., et al., 2021]; [Song, X., et al., 2019]; [Kumar, P., et al., 2018]).

HepG2 cell line = assay: SRB growth inhibition assay, anticancer efficacy; assay type: cell-based; conditions: Homo sapiens, HepG2, 48 h, 10-80 μg/ml, read-out: GI50 (growth inhibitory concentration)
Protocol: National Cell Repository of NCCS (Pune, India) provided the HepG2 cell line, which was then grown in our cell culture lab for further in vitro assays. The liver cancer cell lines were grown in a T-75 flask for 24 h at 37°C, 5% CO2, and absolute humidity equal to 100% in the Roswell Park Memorial Institute (RPMI)-1640 media with 10% fetal bovine serum and 2 mM L-glutamine. The cells were collected by centrifugation and incubated at a density of 5×10^3 cells/well onto 96 well plates to measure the growth. The test samples were distributed in dimethyl sulfoxide at 100 mg/ml concentration, diluted to 1 mg/ml equivalent drug concentration in distilled H2O. […] After removing the attached dye with 10 mM Trizma base, absorbance was measured at 540 nm using a 690 nm reference. The findings were acquired in triplicate on different plates, and the mean of the three trials was determined. The % cell growth was measured using absorbance data (time zero [Tz], control growth (C), and test growth in the presence of drug at different concentrations [Ti]. The % growth inhibition was calculated using the following formula Ti−Tz/C−Tz×100 for concentrations for which Ti≥Tz […]
It was shown that the quantity of protein formation was reduced by 50% at a medication concentration of […]. […]

[2] = Oral pharmacokinetic study, HPLC quantification in plasma; assay type: in vivo, albino Wistar rats; conditions: rat plasma, DL equivalent 100 mg/kg
Protocol: DL, DLF, and DLMF were administered orally to albino Wistar rats at a dose of DL equivalent to 100 mg/kg (Approval No: IU/IAEC/20/01), and after the first treatment, the blood samples were collected through retro-orbital plexus of the animals at 0.083, 0.25, 0.5, 1, 2, 4, 8, 12, 16, 24, and 48 h. The serum was isolated from the blood by centrifugation for 10 min at 10,000 rpm. The serum samples were kept at -20 °C until quantification by HPLC analysis.
A precise and accurate bioanalytical approach was devised for drug quantification in plasma samples. ACN was used to make 1 mg/ml stock solution of DL, and stock solution in ACN was used to make working standard solutions of 0.02, 0.1, 0.2, 0.5, 1, 2, 5, 10, 50, and 100 μg/ml. Overall, separate tubes containing 100 […] and 100 […] were vortexed for 30 min. The tubes were then spun at 13,000 rpm for 5 min. The supernatant was collected, transferred to fresh tubes, and allowed to dry overnight at a temperature of 40°C. After that, the tubes were reconstituted with 100 μL of ACN, vortexed for 5 minutes, and 20 μL of supernatant was injected into HPLC to quantify DL. The working solution concentrations were 0.01, 0.05, 0.1, 0.25, 0.5, 1, 2.5, 5.0, 25.0, and 50.0 μg/ml. Low-quality control (LQC), medium quality control (MQC), and high-quality control (HQC) samples were created with different quantities of 0.005, 0.5, and 40 μg/ml, respectively. It was necessary to create quality control samples and triplicate calibrations for each concentration. A test tube containing 100 μL of test plasma and 100 μL of ACN was vortexed for 30 min to create the test samples. To assess the final outcomes, WinNonlin version 1.5.3 was used ([Nisha et al., 2020a]; [Kumar, P., et al., 2018]; [Nisha et al., 2020b]).

cumulative discharge (in vitro release) [1]: around 40.97 ± 3.01%
GI50 (HepG2 cell line): 20 µg/mL (≈ 74.6 µM)
AUC(0-inf) ([2]; albino Wistar): 244 ± 10.3 µg·h/mL
Cmax ([2]; albino Wistar): 23100 ± 840 ng/mL
MRT ([2]; albino Wistar): 11.5 ± 1.01 h
Tmax ([2]; albino Wistar): 4 h
half-life ([2]; albino Wistar): 9.63 h
AUMC [2]: 2806.95 µg.h^2/ml
Structure (SMILES): COc1cc2oc(=O)cc(-c3ccccc3)c2cc1O [DL, 6-hydroxy-7-methoxy-4-phenyl-2H-cromen-2-one]
